Data set [1] addresses T1, Adrenergic receptor alpha-1 (Rattus norvegicus, UniProt P15823+P23944+P43140).
T1 sequence (P15823 whole entry): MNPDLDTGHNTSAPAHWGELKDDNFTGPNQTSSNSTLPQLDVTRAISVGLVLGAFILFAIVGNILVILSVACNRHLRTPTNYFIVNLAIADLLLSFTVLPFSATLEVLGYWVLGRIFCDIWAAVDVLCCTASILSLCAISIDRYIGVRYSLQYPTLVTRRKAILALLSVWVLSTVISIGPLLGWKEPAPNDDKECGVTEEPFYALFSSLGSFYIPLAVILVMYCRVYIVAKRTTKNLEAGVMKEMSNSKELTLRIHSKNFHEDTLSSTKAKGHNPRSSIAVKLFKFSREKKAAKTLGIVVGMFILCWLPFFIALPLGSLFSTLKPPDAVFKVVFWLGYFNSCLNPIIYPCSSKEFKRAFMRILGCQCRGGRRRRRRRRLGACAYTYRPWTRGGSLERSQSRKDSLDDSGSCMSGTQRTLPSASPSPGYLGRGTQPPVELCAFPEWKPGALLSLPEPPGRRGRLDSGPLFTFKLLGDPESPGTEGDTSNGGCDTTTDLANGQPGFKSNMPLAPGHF
T1 sequence (P23944 whole entry): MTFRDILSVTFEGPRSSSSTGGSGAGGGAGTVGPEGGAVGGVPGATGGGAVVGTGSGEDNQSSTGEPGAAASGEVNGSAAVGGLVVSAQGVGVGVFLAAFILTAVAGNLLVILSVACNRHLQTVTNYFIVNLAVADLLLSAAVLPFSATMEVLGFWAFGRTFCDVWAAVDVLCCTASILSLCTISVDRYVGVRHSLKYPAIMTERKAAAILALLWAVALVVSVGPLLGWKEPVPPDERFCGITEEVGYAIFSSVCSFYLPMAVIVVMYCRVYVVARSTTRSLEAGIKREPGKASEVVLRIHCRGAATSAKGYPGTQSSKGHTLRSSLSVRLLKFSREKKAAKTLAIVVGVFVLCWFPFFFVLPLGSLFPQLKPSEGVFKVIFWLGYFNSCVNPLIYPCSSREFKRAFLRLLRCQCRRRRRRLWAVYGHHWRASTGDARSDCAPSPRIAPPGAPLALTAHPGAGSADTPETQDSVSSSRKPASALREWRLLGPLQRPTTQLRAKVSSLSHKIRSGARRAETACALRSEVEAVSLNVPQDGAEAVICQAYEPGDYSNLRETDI
T1 sequence (P43140 whole entry): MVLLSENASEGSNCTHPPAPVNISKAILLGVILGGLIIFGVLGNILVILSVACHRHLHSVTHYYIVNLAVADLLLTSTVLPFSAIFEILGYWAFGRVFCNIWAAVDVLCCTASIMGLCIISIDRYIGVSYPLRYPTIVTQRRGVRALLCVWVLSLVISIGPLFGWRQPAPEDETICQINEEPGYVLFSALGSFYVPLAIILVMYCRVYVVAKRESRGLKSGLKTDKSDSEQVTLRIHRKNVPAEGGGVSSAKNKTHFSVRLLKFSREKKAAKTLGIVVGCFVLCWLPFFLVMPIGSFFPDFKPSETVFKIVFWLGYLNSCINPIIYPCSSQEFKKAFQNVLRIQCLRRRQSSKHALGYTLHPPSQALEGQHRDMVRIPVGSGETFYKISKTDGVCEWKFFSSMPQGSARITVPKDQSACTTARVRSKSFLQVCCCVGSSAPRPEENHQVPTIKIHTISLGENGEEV
Nature of the data set: Binding affinity towards alpha-1 adrenergic receptors in rat brain synaptosomal preparations. The class given is tissue-based.

In a further data set the target is D(2) dopamine receptor (Rattus norvegicus, UniProt P61169). Nature of the data set: Binding affinity towards dopamine D2 receptors in rat brain synaptosomal preparations. In kind it is tissue-based.
Chain of D(2) dopamine receptor (P61169 whole entry): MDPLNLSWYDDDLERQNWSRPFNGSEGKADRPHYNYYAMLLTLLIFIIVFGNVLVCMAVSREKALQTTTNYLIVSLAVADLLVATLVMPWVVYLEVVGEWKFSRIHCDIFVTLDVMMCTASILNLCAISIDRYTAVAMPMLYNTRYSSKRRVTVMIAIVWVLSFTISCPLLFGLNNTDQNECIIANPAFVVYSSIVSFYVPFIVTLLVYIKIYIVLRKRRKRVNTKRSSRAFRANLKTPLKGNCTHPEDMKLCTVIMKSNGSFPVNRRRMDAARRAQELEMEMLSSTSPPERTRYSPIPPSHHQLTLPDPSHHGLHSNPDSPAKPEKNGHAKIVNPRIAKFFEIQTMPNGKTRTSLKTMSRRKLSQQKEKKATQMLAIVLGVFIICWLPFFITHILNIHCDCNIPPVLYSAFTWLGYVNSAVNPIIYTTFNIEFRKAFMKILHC
For data set [2], the target named is T2, 5-hydroxytryptamine receptor 1A (Rattus norvegicus, UniProt P19327).
T2 sequence (P19327 whole entry): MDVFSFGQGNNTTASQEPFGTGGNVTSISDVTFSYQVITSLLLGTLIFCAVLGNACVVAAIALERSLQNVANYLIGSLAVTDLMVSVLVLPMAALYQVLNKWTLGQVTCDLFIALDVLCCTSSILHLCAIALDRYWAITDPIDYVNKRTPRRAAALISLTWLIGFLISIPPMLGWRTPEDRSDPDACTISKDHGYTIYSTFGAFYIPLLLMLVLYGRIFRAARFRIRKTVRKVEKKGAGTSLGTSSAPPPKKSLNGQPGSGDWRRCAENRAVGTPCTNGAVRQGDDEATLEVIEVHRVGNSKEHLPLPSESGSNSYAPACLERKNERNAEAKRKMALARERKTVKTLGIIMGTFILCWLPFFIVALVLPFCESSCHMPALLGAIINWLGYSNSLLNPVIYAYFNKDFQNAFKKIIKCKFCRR
Description: Binding affinity towards 5-hydroxytryptamine 1A receptor of rat brain synaptosomal preparations

Data set [3] addresses T3, Adrenergic receptor alpha-2 (Rattus norvegicus, UniProt P22086+P19328+P22909).
T3 sequence (P22086 whole entry): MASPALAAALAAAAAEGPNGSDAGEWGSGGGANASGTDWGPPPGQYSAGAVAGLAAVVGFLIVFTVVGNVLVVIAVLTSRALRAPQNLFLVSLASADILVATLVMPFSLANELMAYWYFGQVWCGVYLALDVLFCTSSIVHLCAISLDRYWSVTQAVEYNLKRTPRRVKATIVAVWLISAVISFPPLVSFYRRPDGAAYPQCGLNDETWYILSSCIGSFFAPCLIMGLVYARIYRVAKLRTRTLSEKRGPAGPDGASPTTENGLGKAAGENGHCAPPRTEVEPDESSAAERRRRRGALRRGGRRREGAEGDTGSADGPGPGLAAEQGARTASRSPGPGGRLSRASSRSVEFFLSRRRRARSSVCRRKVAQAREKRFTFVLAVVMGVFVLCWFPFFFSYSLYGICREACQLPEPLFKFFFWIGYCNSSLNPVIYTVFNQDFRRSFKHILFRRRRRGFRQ
T3 sequence (P19328 whole entry): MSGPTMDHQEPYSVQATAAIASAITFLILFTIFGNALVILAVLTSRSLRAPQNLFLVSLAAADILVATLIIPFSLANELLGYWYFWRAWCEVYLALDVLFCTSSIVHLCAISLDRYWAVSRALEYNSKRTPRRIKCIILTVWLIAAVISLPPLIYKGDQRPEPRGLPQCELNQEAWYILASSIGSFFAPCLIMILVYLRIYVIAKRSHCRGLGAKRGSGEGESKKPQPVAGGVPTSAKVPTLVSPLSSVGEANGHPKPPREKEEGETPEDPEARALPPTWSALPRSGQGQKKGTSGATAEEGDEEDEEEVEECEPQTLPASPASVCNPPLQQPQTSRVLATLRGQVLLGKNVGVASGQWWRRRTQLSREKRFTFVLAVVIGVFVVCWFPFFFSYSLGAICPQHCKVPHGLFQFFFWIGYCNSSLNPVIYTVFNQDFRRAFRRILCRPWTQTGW
T3 sequence (P22909 whole entry): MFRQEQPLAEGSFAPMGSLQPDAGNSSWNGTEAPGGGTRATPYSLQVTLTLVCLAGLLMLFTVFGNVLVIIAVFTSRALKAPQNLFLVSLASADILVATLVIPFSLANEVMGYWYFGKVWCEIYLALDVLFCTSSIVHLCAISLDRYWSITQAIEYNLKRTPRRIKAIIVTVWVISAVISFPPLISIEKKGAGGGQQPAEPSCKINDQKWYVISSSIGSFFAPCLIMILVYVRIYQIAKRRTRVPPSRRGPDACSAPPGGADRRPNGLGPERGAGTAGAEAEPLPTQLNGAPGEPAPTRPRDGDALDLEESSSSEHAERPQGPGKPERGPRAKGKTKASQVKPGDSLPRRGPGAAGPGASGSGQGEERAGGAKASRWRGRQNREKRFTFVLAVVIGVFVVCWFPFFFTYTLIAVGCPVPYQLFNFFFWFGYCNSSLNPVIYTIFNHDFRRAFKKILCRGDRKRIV
Description: Binding affinity towards alpha-2 adrenergic receptors in rat brain synaptosomal preparations

The species entered for data set [4] is Rattus norvegicus. Nature of the data set: The compound was evaluated for the conditioned avoidance response data (CAR) in rat intra peritoneally. In kind it is functional.
Data set [5] has as its target 5-hydroxytryptamine receptor 1B (Rattus norvegicus, UniProt P28564). Put plainly: Binding affinity towards 5-hydroxytryptamine 1B receptor.
Data set [6] addresses Serotonin 2 (5-HT2) receptor (Rattus norvegicus, UniProt P30994+P08909+P14842). Nature of the data set: Binding affinity towards 5-hydroxytryptamine 2 receptor. The class given is protein assay.
A short description of data set [7]: Partition coefficient (logP). The class given is physicochemical. The note with it: octanol/water.
A further data set deals with Canis familiaris. Put plainly: The compound is evaluated for inhibition of apomorphine induced emesis in dogs after peroral administration. The class given is functional, Canis lupus familiaris.
A further data set addresses D(1A) dopamine receptor (Homo sapiens, UniProt P21728). Nature of the data set: Binding affinity towards dopamine receptor D1 (human clone).
In the next data set the target is D(1B) dopamine receptor (Rattus norvegicus, UniProt P25115). Put plainly: Binding affinity towards Dopamine receptor D5 (rat clone).
Chain of D(1B) dopamine receptor (P25115 whole entry): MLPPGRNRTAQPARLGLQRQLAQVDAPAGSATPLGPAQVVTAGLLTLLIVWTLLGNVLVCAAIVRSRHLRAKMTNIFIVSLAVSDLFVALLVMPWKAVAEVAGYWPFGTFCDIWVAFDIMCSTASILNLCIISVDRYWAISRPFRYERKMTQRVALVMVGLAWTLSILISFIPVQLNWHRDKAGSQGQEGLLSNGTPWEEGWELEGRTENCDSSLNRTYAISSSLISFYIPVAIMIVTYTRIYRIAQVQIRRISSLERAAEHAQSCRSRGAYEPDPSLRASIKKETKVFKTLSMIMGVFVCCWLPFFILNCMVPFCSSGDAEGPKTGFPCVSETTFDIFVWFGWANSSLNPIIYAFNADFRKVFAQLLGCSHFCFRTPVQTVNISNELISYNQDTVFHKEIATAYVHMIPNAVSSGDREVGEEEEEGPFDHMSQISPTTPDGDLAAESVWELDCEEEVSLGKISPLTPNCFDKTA
In the next data set the target is D(3) dopamine receptor (Rattus norvegicus, UniProt P19020). Nature of the data set: Binding affinity towards baculovirus expressed rat dopamine D3 receptors.
Chain of D(3) dopamine receptor (P19020 whole entry): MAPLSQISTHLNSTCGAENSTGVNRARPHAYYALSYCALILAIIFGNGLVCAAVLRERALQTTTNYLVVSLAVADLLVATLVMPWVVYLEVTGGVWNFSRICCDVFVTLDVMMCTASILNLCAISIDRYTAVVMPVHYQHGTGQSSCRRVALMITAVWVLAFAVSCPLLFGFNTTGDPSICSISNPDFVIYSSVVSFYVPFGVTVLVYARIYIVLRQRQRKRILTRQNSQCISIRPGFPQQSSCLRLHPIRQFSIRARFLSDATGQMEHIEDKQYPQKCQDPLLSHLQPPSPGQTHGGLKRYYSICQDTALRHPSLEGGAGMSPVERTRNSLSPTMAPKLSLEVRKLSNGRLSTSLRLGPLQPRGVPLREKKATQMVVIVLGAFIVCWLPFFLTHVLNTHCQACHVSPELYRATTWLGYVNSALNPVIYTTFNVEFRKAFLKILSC
Another data set has as its system Mus musculus. Put plainly: The compound is evaluated for inhibition of apomorphine induced climbing behavior in mice after peroral administration. The class given is functional. Conditions: po.
Data set [8] deals with Muscarinic acetylcholine receptor. Put plainly: Binding affinity towards muscarinic receptors. In kind it is protein assay, Rattus norvegicus.
Data set [9] deals with Rattus norvegicus. Nature of the data set: The compound is evaluated for inhibition of 8-OH-DPAT induced reciprocal forepaw treading in reserpinized rats after intraperitoneal administration. In kind it is functional. Conditions: ip.
Data set [10] deals with Rattus norvegicus. Nature of the data set: The compound was evaluated for the conditioned avoidance response data (CAR) in rat intravenous administration at 0.66 mg/kg concentration. In kind it is functional.
Data set [11] concerns Rattus norvegicus. Nature of the data set: The compound was evaluated for the conditioned avoidance response data (CAR) in rat peroral administration. The note with it: po. The class given is functional.
For data set [12], the system named is Rattus norvegicus. Nature of the data set: The compound is evaluated for induction of catalepsy in rats at a dose of 100 mg/kg after peroral administration. In kind it is functional. The note with it: route oral.
Data set [13] has as its target Sigma non-opioid intracellular receptor 1 (Rattus norvegicus, UniProt Q9R0C9). Nature of the data set: Binding affinity towards sigma receptors.

Chain of Sigma non-opioid intracellular receptor 1 (Q9R0C9 whole entry): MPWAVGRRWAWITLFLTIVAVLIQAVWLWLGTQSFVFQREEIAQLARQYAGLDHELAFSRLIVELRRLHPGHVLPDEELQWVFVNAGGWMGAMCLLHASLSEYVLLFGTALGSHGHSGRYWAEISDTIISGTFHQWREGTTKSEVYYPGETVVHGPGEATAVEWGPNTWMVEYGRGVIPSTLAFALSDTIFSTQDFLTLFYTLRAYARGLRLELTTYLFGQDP
Chain of 5-hydroxytryptamine receptor 1B (P28564 whole entry): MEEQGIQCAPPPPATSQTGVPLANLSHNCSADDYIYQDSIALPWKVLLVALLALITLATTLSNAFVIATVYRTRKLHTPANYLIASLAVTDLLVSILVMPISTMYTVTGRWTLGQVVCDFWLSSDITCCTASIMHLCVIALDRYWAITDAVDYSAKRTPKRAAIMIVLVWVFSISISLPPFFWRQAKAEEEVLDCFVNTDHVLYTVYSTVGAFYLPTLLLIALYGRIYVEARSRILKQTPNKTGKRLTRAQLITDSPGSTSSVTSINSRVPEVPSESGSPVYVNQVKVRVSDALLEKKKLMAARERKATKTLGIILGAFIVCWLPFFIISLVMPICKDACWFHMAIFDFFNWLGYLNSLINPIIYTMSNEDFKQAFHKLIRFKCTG
Chain of D(1A) dopamine receptor (P21728 whole entry): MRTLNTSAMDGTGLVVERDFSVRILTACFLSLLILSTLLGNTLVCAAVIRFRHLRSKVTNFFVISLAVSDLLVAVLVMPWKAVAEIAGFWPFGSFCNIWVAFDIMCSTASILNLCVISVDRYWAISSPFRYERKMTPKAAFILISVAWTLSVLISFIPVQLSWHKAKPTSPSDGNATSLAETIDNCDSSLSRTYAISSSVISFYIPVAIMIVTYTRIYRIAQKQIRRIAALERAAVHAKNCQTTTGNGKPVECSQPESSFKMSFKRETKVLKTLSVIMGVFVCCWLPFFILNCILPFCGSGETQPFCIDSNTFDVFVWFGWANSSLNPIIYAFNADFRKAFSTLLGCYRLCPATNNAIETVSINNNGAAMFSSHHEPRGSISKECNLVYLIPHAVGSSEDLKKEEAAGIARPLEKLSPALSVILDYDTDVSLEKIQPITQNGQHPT

Broadly, the Ki is the dissociation constant of the complex between target and ligand, obtained from inhibition or displacement. In the case of `CC(C)Oc1ccccc1N1CCN(Cc2ccccc2C(=O)N2CCCCC2)CC1`, the Ki worked out at 220 nM in data set [1], 37 nM at D(2) dopamine receptor, 6.8 nM in data set [2] and 16 nM in data set [3].
As to `CC(C)Oc1ccccc1N1CCN(Cc2ccc(C(=O)N3CCCCC3)cc2)CC1`, the Ki is 3 nM in data set [1], 100 nM at D(2) dopamine receptor and 560 nM in [2].
Compound `CC(C)Oc1ccccc1N1CCN(Cc2ccc(CN3CCCCC3=O)cc2)CC1` came in with a Ki in data set [3] of 1000 nM.
Broadly, the ED50 is the dose that gives a 50% effect, or the effect in half of the subjects. The low end stands for an effect at a small dose, the high end for a need for a large dose. `CN1CCN(C2=Nc3cc(Cl)ccc3Nc3ccccc32)CC1` [CLOZAPINE]: the ED50 in the data set filed under Rattus norvegicus [4] is 4 mg/kg.
One may read the logP as the decadic logarithm of the partition coefficient of the neutral form, usually between octanol and water. As for `CC(C)Oc1ccccc1N1CCN(Cc2cccc(C(=O)N3CCCCC3)c2)CC1` [MAZAPERTINE], the Ki in [5] was 2880 nM; in [6] it was 165 nM; on D(1A) dopamine receptor, above 5000 nM; on D(1B) dopamine receptor, above 5000 nM; on D(3) dopamine receptor, 1.8 nM; in data set [8] it was above 5000 nM. The Ki in data set [13] was above 5000 nM; in [3] it was 17 nM. Besides, the logP in data set [7] amounted to 4. Moreover, the ED50 was 0.038 mg/kg with Canis familiaris; 0.6 mg/kg with Mus musculus; 5.24 mg/kg in the data set with Rattus norvegicus [9]; 0.23 mg/kg in the data set on Rattus norvegicus [10]; 13.8 mg/kg in the data set with Rattus norvegicus [11]. In the data set on Rattus norvegicus [12], the Catalepsy is 30%.

These data come from ChEMBL document CHEMBL1127628, “A new arylpiperazine antipsychotic with high D2/D3/5-HT1A/alpha 1A-adrenergic affinity and a low potential for extrapyramidal effects” (J Med Chem, 1994).
